Patent US20130172384A1, “FATTY ACID SYNTHASE INHIBITORS” (GlaxoSmithKline Intellectual Property Development Limited, priority 2010, published 2013)

Molecular target: FAS (Homo sapiens, UniProt P49327)
Experiment: FAS assay (Assay #1 residual NADPH detection or Assay #2 CoA detection with CPM dye)
Assay type: biochemical
Conditions: inhibition of FAS; measured by one of two assays; one experiment or average of multiple experiments
Procedure: FAS activity was measured through one of the two following assays.
Inhibition of FAS activity can be measured based on the detection of residual NADPH substrate after the FAS assay is quenched. This assay is run as a 10 μL endpoint assay in 384-well format, where the reaction contains 20 μM malonyl-CoA, 2 μM acetyl-CoA, 30 μM NADPH and 40 nM FAS in 50 mM sodium phosphate, pH 7.0. The assay is run by sequentially dispensing 5 μl of a malonyl-CoA solution, then enzyme solution (containing the acetyl-CoA, and NADPH) into a black, low volume assay plate (Greiner 784076) pre-dispensed with 100 nL compound solutions in DMSO. The reaction is incubated at ambient temperature for 60 minutes, then quenched with 5 μL of a developing solution composed of 90 μM resazurin, 0.3 IU/ml diaphorase in 50 mM sodium phosphate, pH 7.0. The developed reaction is read on a Molecular Devices Analyst or Acquest (or equivalent) plate reader using a 530 nm excitation wavelength filter, a 580 nm emission filter, and 561 nm dichroic filter. The test compounds are prepared in neat DMSO at a concentration of 10 mM. For inhibition curves, compounds are diluted using a three fold serial dilution and tested at 11 concentrations (e.g. 25 μM-0.42 nM). Curves are analysed using ActivityBase and XLfit, and results are expressed as pIC50 values.
Inhibition of FAS can also be quantified based on the detection of the CoA products with a thio-reactive coumarin dye. This assay is run as a 10 μL endpoint assay in 384-well format, where the reaction contains 20 μM malonyl-CoA, 20 μM acetyl-CoA, 40 μM NADPH and 2 nM FAS in 50 mM sodium phosphate, pH 7.0, and 0.04% Tween-20. The assay is run by adding 5 μL enzyme solution to a black, low volume assay plate (Greiner 784076) pre-dispensed with 100 nl compound solutions in DMSO. After 30 minutes, 5 μL substrate is added, and the reaction incubated at ambient temperature for an additional 60 minutes. The reaction is then quenched with 10 μL of 6M guanidine-HCl containing 50 μM CPM (7-diethylamino-3-(4′-maleimidylphenyl)-4-methylcoumarin (CPM; thio-reactive dye), and incubated for 30 minutes. The plate is read on an Envision (PerkinElmer) or equivalent plate reader using a 380 nm excitation wavelength filter, and a 486 nm emission filter. Data fitting and compound preparations are done as described above.

FAS, sequence (P49327 whole entry): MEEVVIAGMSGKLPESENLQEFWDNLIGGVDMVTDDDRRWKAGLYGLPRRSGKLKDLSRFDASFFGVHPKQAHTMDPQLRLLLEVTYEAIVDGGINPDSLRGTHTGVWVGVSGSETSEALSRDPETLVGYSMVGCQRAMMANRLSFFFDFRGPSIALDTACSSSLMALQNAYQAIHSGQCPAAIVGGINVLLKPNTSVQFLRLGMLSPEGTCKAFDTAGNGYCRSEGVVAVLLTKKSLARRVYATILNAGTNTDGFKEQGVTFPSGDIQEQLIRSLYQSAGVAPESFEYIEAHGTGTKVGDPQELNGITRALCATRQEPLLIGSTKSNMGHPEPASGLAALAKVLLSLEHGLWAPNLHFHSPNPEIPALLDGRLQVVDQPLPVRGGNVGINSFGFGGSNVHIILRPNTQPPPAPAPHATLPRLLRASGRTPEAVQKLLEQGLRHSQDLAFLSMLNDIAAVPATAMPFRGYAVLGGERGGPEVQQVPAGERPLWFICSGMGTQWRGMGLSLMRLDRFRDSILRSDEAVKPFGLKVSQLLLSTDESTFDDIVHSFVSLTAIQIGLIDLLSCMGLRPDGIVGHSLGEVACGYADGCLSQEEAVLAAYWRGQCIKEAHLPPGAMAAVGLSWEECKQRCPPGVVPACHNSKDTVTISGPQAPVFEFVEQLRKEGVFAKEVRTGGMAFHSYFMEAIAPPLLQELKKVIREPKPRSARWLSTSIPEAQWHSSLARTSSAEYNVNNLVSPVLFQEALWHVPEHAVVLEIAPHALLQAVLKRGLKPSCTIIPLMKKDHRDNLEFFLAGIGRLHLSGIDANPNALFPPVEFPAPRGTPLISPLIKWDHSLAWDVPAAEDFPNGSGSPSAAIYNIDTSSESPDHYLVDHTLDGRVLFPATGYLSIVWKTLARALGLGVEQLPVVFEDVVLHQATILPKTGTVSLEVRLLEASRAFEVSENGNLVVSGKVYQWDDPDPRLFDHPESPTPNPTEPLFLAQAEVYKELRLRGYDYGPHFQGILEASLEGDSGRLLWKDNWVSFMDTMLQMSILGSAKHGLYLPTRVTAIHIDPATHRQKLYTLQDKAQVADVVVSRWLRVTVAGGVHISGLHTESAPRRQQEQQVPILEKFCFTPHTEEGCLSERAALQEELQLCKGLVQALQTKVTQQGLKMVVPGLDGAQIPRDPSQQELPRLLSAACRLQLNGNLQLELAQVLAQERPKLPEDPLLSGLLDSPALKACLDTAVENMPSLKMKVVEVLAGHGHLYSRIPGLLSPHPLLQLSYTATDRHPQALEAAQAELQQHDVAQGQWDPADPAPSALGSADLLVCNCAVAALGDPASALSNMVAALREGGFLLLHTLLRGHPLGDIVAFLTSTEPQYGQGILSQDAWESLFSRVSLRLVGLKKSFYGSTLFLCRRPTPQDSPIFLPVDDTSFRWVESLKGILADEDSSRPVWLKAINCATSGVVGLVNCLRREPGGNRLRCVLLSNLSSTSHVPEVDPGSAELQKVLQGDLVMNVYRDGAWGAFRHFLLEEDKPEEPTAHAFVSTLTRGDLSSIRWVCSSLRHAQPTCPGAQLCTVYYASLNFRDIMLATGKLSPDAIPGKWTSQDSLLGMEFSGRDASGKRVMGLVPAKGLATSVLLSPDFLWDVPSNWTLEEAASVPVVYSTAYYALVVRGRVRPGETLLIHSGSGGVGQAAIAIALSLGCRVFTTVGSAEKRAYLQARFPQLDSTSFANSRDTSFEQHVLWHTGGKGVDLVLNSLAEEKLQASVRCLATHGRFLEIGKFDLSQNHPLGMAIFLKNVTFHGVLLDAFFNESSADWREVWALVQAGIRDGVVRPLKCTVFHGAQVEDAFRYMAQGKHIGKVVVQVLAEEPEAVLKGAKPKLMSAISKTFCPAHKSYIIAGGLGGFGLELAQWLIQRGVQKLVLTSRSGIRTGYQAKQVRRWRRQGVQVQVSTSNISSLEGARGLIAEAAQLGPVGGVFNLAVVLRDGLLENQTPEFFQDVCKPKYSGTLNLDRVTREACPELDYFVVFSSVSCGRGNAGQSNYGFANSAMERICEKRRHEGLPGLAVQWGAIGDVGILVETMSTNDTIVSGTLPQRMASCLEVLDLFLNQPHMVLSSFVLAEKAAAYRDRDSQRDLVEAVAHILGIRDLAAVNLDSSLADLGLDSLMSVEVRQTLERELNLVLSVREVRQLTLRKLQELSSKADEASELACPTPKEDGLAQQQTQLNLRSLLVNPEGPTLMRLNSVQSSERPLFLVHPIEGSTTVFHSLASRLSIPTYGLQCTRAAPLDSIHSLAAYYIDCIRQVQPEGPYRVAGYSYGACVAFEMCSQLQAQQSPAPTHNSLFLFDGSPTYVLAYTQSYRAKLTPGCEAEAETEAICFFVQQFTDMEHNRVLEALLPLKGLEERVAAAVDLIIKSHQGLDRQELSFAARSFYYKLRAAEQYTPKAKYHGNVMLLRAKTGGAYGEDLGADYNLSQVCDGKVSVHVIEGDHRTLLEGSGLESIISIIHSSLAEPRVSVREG

Structure (SMILES) | IC50 [µM]
Cn1nc(-c2ccc(-c3ccc4occc4c3)c(F)c2)n(C[C@@H]2CCN(C(=O)C3CC3)C2)c1=O [Example 2, 5-[4-(1-benzofuran-5-yl)-3-fluorophenyl]-4-{[(3R)-1-(cyclopropylcarbonyl)-3-pyrrolidinyl]methyl}-2-methyl-2,4-dihydro-3H-1,2,4-triazol-3-one] | 0.158
COc1ccc(-c2ccc(-c3nn(C)c(=O)n3C[C@@H]3CCN(C(=O)C4CC4)C3)cc2)c(Cl)c1 [Example 35, 5-[2′-chloro-4′-(methyloxy)-4-biphenylyl]-4-{[(3R)-1-(cyclopropylcarbonyl)-3-pyrrolidinyl]methyl}-2-methyl-2,4-dihydro-3H-1,2,4-triazol-3-one] | 0.079
O=C(C1CC1)N1CC[C@@H](Cn2c(-c3ccc(-c4ccc(F)cc4)cc3)nn(Cc3ccccc3)c2=O)C1 [Example 42, 4-{[(3R)-1-(cyclopropylcarbonyl)-3-pyrrolidinyl]methyl}-5-(4′-fluoro-4-biphenylyl)-2-(phenylmethyl)-2,4-dihydro-3H-1,2,4-triazol-3-one] | 0.263
CN(C)S(=O)(=O)Nc1cccc(-c2ccc(-c3n[nH]c(=O)n3C[C@@H]3CCN(C(=O)C4CC4)C3)cc2)c1 [Example 49, N′-[4′-(4-{[(3R)-1-(cyclopropylcarbonyl)-3-pyrrolidinyl]methyl}-5-oxo-4,5-dihydro-1H-1,2,4-triazol-3-yl)-3-biphenylyl]-N,N-dimethylsulfamide] | 0.04
O=C(C1CC1)N1CC[C@@H](Cn2c(-c3ccc(-c4ccc(F)nc4)cc3)n[nH]c2=O)C1 [Example 58, 4-{[(3R)-1-(cyclopropylcarbonyl)-3-pyrrolidinyl]methyl}-5-[4-(6-fluoro-3-pyridinyl)phenyl]-2,4-dihydro-3H-1,2,4-triazol-3-one] | 2
N#Cc1ccc(-c2ccc(-c3n[nH]c(=O)n3C[C@@H]3CCN(C(=O)C4CC4)C3)cc2)cc1 [Example 66, 4′-(4-{[(3R)-1-(cyclopropylcarbonyl)-3-pyrrolidinyl]methyl}-5-oxo-4,5-dihydro-1H-1,2,4-triazol-3-yl)-4-biphenylcarbonitrile] | 0.079
O=C(C1CC1)N1CC[C@@H](Cn2c(-c3ccc(-c4cn5ccccc5n4)cc3)n[nH]c2=O)C1 [Example 78, 4-{[(3R)-1-(cyclopropylcarbonyl)-3-pyrrolidinyl]methyl}-5-(4-imidazo[1,2-a]pyridin-2-ylphenyl)-2,4-dihydro-3H-1,2,4-triazol-3-one] | 0.398
O=C(C1CC1)N1CC[C@@H](Cn2c(-c3ccc(-c4ccn5ccnc5c4)cc3)n[nH]c2=O)C1 [Example 79, 4-{[(3R)-1-(cyclopropylcarbonyl)-3-pyrrolidinyl]methyl}-5-(4-imidazo[1,2-a]pyridin-7-ylphenyl)-2,4-dihydro-3H-1,2,4-triazol-3-one] | 0.1
NC(=O)Nc1cccc(-c2ccc(-c3n[nH]c(=O)n3C[C@@H]3CCN(C(=O)C4CC4)C3)cc2)c1 [Example 103, N-[4′-(4-{[(3R)-1-(cyclopropylcarbonyl)-3-pyrrolidinyl]methyl}-5-oxo-4,5-dihydro-1H-1,2,4-triazol-3-yl)-3-biphenylyl]urea] | 0.316
O=C(C1CC1)N1CC[C@@H](Cn2c(-c3ccc(-c4ccc(Cl)cc4F)cc3)n[nH]c2=O)C1 [Example 105] | 0.05
COc1ccc(-c2ccc(-c3n[nH]c(=S)n3C[C@@H]3CCN(C(=O)C4CC4)C3)cc2)c(Cl)c1 [Example 107, 5-[2′-chloro-4′-(methyloxy)-4-biphenylyl]-4-{[(3R)-1-(cyclopropylcarbonyl)-3-pyrrolidinyl]methyl}-2,4-dihydro-3H-1,2,4-triazole-3-thione] | 0.072

Second part, the compound after the results:

IC50 [µM] | Structure (SMILES)
0.025 | O=C(C1CC1)N1CC[C@@H](Cn2c(-c3ccc(-c4ccc5cc[nH]c5c4)c(F)c3)n[nH]c2=O)C1 [Example 4, 4-{[(3R)-1-(cyclopropylcarbonyl)-3-pyrrolidinyl]methyl}-5-[3-fluoro-4-(1H-indol-6-yl)phenyl]-2,4-dihydro-3H-1,2,4-triazol-3-one]
0.04 | O=C(C1CC1)N1CC[C@@H](Cn2c(-c3ccc(-c4ccc(F)cc4)cc3Cl)n[nH]c2=O)C1 [Example 20, 5-(3-chloro-4′-fluoro-4-biphenylyl)-4-{[(3R)-1-(cyclopropylcarbonyl)-3-pyrrolidinyl]methyl}-2,4-dihydro-3H-1,2,4-triazol-3-one]
0.004 | O=C(C1CC1)N1CC[C@@H](Cn2c(-c3ccc(-c4ccc5cc[nH]c5c4)cc3)n[nH]c2=O)C1 [Example 21, 4-{[(3R)-1-(cyclopropylcarbonyl)-3-pyrrolidinyl]methyl}-5-[4-(1H-indol-6-yl)phenyl]-2,4-dihydro-3H-1,2,4-triazol-3-one]
0.016 | O=C(C1CC1)N1CC[C@@H](Cn2c(-c3ccc(-c4ccc(Cl)cc4)cc3F)n[nH]c2=O)C1 [Example 47, 5-(4′-chloro-3-fluoro-4-biphenylyl)-4-{[(3R)-1-(cyclopropylcarbonyl)-3-pyrrolidinyl]methyl}-2,4-dihydro-3H-1,2,4-triazol-3-one]
0.02 | O=C(C1CC1)N1CC[C@@H](Cn2c(-c3ccc(-c4cccc5ncccc45)cc3)n[nH]c2=O)C1 [Example 71, 4-{[(3R)-1-(cyclopropylcarbonyl)-3-pyrrolidinyl]methyl}-5-[4-(5-quinolinyl)phenyl]-2,4-dihydro-3H-1,2,4-triazol-3-one]
0.016 | CC(C)C(=O)N1CC[C@@H](Cn2c(-c3ccc(-c4ccc5occc5c4)cc3)n[nH]c2=O)C1 [Example 91, 5-[4-(1-benzofuran-5-yl)phenyl]-4-{[(3R)-1-(2-methylpropanoyl)-3-pyrrolidinyl]methyl}-2,4-dihydro-3H-1,2,4-triazol-3-one]
0.025 | CN(C)C(=O)N1CC[C@@H](Cn2c(-c3ccc(-c4ccc5occc5c4)cc3)n[nH]c2=O)C1 [Example 92, (3R)-3-({3-[4-(1-benzofuran-5-yl)phenyl]-5-oxo-1,5-dihydro-4H-1,2,4-triazol-4-yl}methyl)-N,N-dimethyl-1-pyrrolidinecarboxamide]
0.004 | CC1(C(=O)N2CC[C@@H](Cn3c(-c4ccc(-c5ccc6occc6c5)cc4)n[nH]c3=O)C2)CC1 [Example 97, 5-[4-(1-benzofuran-5-yl)phenyl]-4-({(3R)-1-[(1-methylcyclopropyl)carbonyl]-3-pyrrolidinyl}methyl)-2,4-dihydro-3H-1,2,4-triazol-3-one]
